Data on 3 compounds can be found in patent US8716183B2, “Control of aquatic weeds with endothall and ALS-inhibiting agent” (SePro Corporation, priority 2008, dated 2014).

Assay [1] deals with hydrilla. Conditions: cited from earlier work.
The subject of assay [2] is hydrilla. The assay can be described thus: Penoxsulam+endothall under static exposure to hydrilla, GR50 and Isobole analysis. The class given is in vivo, Hydrilla verticillata. To be noted: harvested 55 days after treatment, n = 3, endothall as a.e., combinations as total ppb. The source says: (§1) Single apical meristems of hydrilla, collected from Florida, were planted into small pots (13.5 cm length×3.75 cm diameter) containing Wallace Farm® topsoil amended with 14-14-14 slow release Osmocote® fertilizer (˜2.5 g Osmocote/kg soil) on 18 Jul. 2008. Approximately 5 to 7 cm of the apical section extended above the sediment at planting, and a sand cap was placed over the potting soil (˜2 cm deep). Plants were then transferred to a 12 L acrylic tanks filled with well water. Tanks were maintained in a growth room with 14:10 h photoperiod at 26° C. Plants were allowed to establish growth for 14 days before treatment.
(§2) Treatments were replicated three times in a completely randomized design. […] All concentrations are expressed as a.e. for endothall.
All above ground biomass was harvested 55 days after treatment. Biomass was dried to constant moisture at 70° C., and dry weights were determined. Data were subjected to regression analysis using Sigma Plot software, and a GR50 was determined (concentration causing a 50% reduction in dry weight). All data were analyzed for synergism/antagonism using the Isobole analysis at the 95% confidence level (estimated using linear interpolation from 95% confidence bands) (Berenbaum, M. C. 1989, Pharmacological Reviews. 41:93-141; Streibig, J. C. 2003, Assessment of herbicide effects: http://www.ewrs.org/et/images/, Herbicide interaction.pdf). […]

Assay [3] has as its system hydrilla. Description: Imazamox+endothall under static exposure to hydrilla, GR50 and Isobole analysis. It counts as in vivo, Hydrilla verticillata. To be noted: harvested 34 days after treatment, n = 3, endothall as a.e., combinations as total ppb.
Text: as §1, with “on 4 Nov.” for “on 18 Jul.”, “for 10” for “for 14”
as §2
All above ground biomass was harvested 34 days after treatment. Biomass was dried to constant moisture at 70° C., and dry weights were determined. Data were subjected to regression analysis using Sigma Plot software, and a GR50 was determined (concentration causing a 50% reduction in dry weight). All data were analyzed for synergism/antagonism using the Isobole analysis at the 95% confidence level (estimated using linear interpolation from 95% confidence bands) (refer to Example 2 for more information on Isobole analysis).

Assay [4] concerns hydrilla. The assay can be described thus: Penoxsulam+endothall under multiple exposures to hydrilla, dry weight and Colby analysis. It counts as in vivo, Hydrilla verticillata. To be noted: for Mean dry weight of hydrilla: penoxsulam 0.02, endothall 0.68 mg/L a.e.; for OBSERVED RESPONSE: penoxsulam 0.02, endothall 0.68 mg/L; for hydrilla biomass compared to untreated controls (LSD, p = 0.05): penoxsulam 0.02 or endothall 0.68 mg/L a.e. alone, 3 to 48 day exposures. An excerpt: Apical sections (12 to 15 cm in length) of hydrilla, collected from Florida, were planted into small pots (13.5 cm length×3.75 cm diameter) containing Wallace Farm® topsoil amended with 14-14-14 slow release Osmocote® fertilizer (˜2.5 g Osmocote/kg soil) on 16 Oct. 2008. Approximately 5 to 7 cm of the apical section extended above the sediment at planting, and a sand cap was placed over the potting soil (˜2 cm deep). Plants were then transferred to a 12 L acrylic tanks filled with well water. Tanks were maintained in a growth room with 14:10 h photoperiod at 26° C. Plants were allowed to grow for 8 days before the following treatments were initiated in triple replicate: • A) Untreated controls • B) Penoxsulam at 0.02 mg/L • C) Endothall at 0.68 mg/L a.e. • D) Simultaneous treatment • a. Penoxsulam 0.02 mg/L+endothall at 0.68 mg/L • i. Exposure times • 1. 3 days • 2. 6 days • 3. 12 days • 4. 24 days • 5. 48 days (static) • E) Sequential treatment • a. Penoxsulam 0.02 mg/L, add 0.68 mg/L endothall 24 days later—static exposure to combination • b. Endothall at 0.68 mg/L, add 0.02 mg/L penoxsulam 24 days later—static exposure to combination • c. Penoxsulam 0.02 mg/L, add 0.68 mg/L endothall 12 days later—12 day exposure to combination • d. Endothall at 0.68 mg/L, add 0.02 mg/L penoxsulam 12 days later—12 day exposure to combination • e. Penoxsulam 0.02 mg/L, add 0.68 mg/L endothall 6 days later—6 day exposure to combination • f. Endothall at 0.68 mg/L, add 0.02 mg/L penoxsulam 6 days later—6 day exposure to combination
Endothall was formulated as Aquathol K® (4.23 #/gallon dipotassium salt, or 3#/gallon a.e.); penoxsulam was formulated as Galleon SC® (2#/gallon active ingredient). All concentrations are expressed as a.e. for endothall. At each exposure time, plants were removed from treatments and placed in a tank with fresh water containing no herbicide (including controls) to remove the aqueous exposure and allow for recovery.
Plants were harvested at 48 days after initial treatment. At harvest, plants were rinsed free of algae and placed in paper sacks in a drying oven for 4 days at 70° C. temperature. Mean dry weights were determined and means separated using least significant differences. Difference between observed and expected responses was determined to evaluate potential interactions using methods reported by Colby (Colby S. R. 1967. Weeds. 15:20-22).

In assay [5] the test system is hydrilla (Hydrilla verticillata). Description: Field Study 1: hydrilla control in a 6 acre lake divided into three zones. It counts as in vivo. Conditions: 21 days after treatment. Here is the method: A 6 acre somewhat rectangular-shaped lake was divided into three 2 acre zones for this testing. A 2-acre test site (Zone 1), located on the northern one-third of the lake, was treated with a penoxsulam plus endothall combination in order to evaluate control of the exotic aquatic weed, hydrilla (Hydrilla verticillata). Within a 50 gallon spray tank system powered by a 5.5 Hp Honda motor, 0.523 gallons Galleon SC (a commercially available penoxsulam formulation) and 12.7 gallons Aquathol K (a commercially available endothall formulation) were added to 36.78 gallons of water. The herbicide combination mixture delivered an application dose of 15 parts per billion penoxsulam and 0.71 ppm a.e. endothall to Zone 1. This herbicide mixture was evenly injected using a trailing hose over the airboat bow throughout the 2 acre Zone 1. On the day of treatment, Zone 1 contained approximately 90% hydrilla coverage, with growth near or at the water surface.
The remaining 4 acres (both Zone 2 (central one-third) and Zone 3 (southern one-third)) of the lake were treated with 15 ppb penoxsulam alone on the same day. Both Zones 2 and 3 contained approximately 90-95% hydrilla coverage at that time.
Twenty one days following the initial treatment, the hydrilla was assessed for herbicidal injury within Zones 1, 2, and 3. […] Approximately 10% of the original plant volume remained near the water's surface; the balance had fallen to the lake bottom. The same was true for a 1 acre area contiguous down lake to Zone 1 moving into Zone 2. All remaining hydrilla plants suspended in the water column within the 3 acres were expressing severe injury.
On this date, 0.71 ppm a.e. endothall (12.7 gallons Aquathol K) was applied to Zone 3 in order to evaluate contact herbicidal efficacy 21 days following a penoxsulam treatment.

The mark [6] stands for this setting: 3-d exposure, harvested 48 days after initial treatment, n = 3.
The mark [7] stands for this setting: 6-d exposure (f/b: second agent added 6 days later, 6 day exposure to combination), harvested at 48 days.
[8] abbreviates: 12-d exposure (f/b: second agent added 12 days later, 12 day exposure to combination), harvested at 48 days.
[9] abbreviates: 24-d exposure (f/b: second agent added 24 days later, static exposure to combination), harvested at 48 days.
[10] abbreviates: 48-d (static) exposure, harvested at 48 days.
The mark [11] stands for this setting: Zone 3 and southern portion of Zone 2, 15 ppb penoxsulam alone.

SMILES strings stand for the structures.

For `O=C(O)[C@@H]1[C@H](C(=O)O)[C@H]2CC[C@@H]1O2` [Endothall, 3,6-endoxohexahydrophthalic acid], in the assay on hydrilla [1] (0.71 ppm a.e. endothall partial area/spot treatment, general), the hydrilla control entry is given as “essentially no hydrilla control”. In addition, in the assay on hydrilla [1] (1.4 to 3.5 ppm a.e. endothall, typical, dependent on plant maturity), the “time before hydrilla plants defoliate and drop toward the lake bottom” value was 2-6 weeks. The “contact with hydrilla required to achieve effective control” value with hydrilla [1] (Netherland et al. 1991) was “less than 72 hours”. Also, the “GR50 (concentration causing a 50% reduction in dry weight)” value in the assay on hydrilla [2] is on record as 309 ppb; in the assay on hydrilla [3], 520 ppb. Besides, the “Mean dry weight of hydrilla” value is 2.24b in the assay with hydrilla [4] (setting [6]); 2.61ab in the assay with hydrilla [4] (setting [7]); 2.72c in the assay with hydrilla [4] (setting [8]); 2.14bc with hydrilla [4] (setting [9]); 1.62b with hydrilla [4] (setting [10]). Further, the “OBSERVED RESPONSE” value with hydrilla [4] (exposure 3 days) is on record as 64% of control; in the assay on hydrilla [4] (exposure 6 days) it was 62% of control; in the assay on hydrilla [4] (exposure 12 days), 48% of control; with hydrilla [4] (exposure 24 days), 47% of control; with hydrilla [4] (exposure 48 days) it was 35% of control. Moreover, the “hydrilla biomass compared to untreated controls (LSD, p = 0.05)” value in the assay with hydrilla [4] was “reduced hydrilla biomass compared to untreated controls at all exposure periods, except 3 and 6-day”.
As for `COCc1cnc(C2=NC(C)(C(C)C)C(=O)N2)c(C(=O)O)c1` (stereo not drawn) [Imazamox], the “GR50 (concentration causing a 50% reduction in dry weight)” value in the assay on hydrilla [3] came to 680 ppb.
As to `COc1cnc(OC)n2nc(NS(=O)(=O)c3c(OCC(F)F)cccc3C(F)(F)F)nc12` [Penoxsulam, 2-(2,2-difluoroethoxy)-6-trifluoromethyl-N-(5,8-dimethoxy[1,2,4]triazolo[1,5c]pyrimidin-2-yl)benzenesulfonamide], the “time before severe injury is expressed” value in the assay on hydrilla [1] (penoxsulam treated hydrilla, typical) is reported as “about 60 days”. In the assay on hydrilla [2], the “GR50 (concentration causing a 50% reduction in dry weight)” value is reported as 12 ppb. Moreover, the hydrilla control entry in assay [5] (setting [11]) is on record as “no control was observed”. Besides, in assay [5] (setting [11]), the “hydrilla remaining near the water's surface” value is on record as “Approximately 90%”. Further, the “herbicidal injury of hydrilla” value in assay [5] (Zones 2 and 3, 15 ppb penoxsulam alone) is on record as “slight but expected penoxsulam injury”. Besides, the “Mean dry weight of hydrilla” value is given as 4.01a in the assay with hydrilla [4] (setting [6]); 3.97a in the assay on hydrilla [4] (setting [7]); 3.68ab with hydrilla [4] (setting [8]); 3.24ab in the assay on hydrilla [4] (setting [9]); 2.41ab in the assay on hydrilla [4] (setting [10]). Further, the “OBSERVED RESPONSE” value in the assay with hydrilla [4] (exposure 3 days) is listed as 115% of control; in the assay on hydrilla [4] (exposure 6 days) it was 95% of control; with hydrilla [4] (exposure 12 days) it was 97% of control; with hydrilla [4] (exposure 24 days), 72% of control; in the assay on hydrilla [4] (exposure 48 days), 52% of control. In the assay on hydrilla [4], the “hydrilla biomass compared to untreated controls (LSD, p = 0.05)” value was “not significantly different from untreated controls”.
